Data published in paper PMC8802617 (Bioorganic & medicinal chemistry, 2018).
Read-outs that look alike come from different tables or passages of the source. *1 amine or outer side, *2 acyl side, *3 side chain or, on linkers, in order; H or OH if unused. Where a SMILES comes first, the peptide text is derived from it. Bridges are numbered along the chain shown (N, C = ends). Roman numbers before positions name the chains, in order. [ ]: non-standard residue; d: D form. Piperazine(1,4-diyl) = C1CN([*:2])CCN1[*:1]; dPen = CC(C)(S)[C@@H](N)C(=O)O

How the values were obtained:
KOR [1] = target: T1, KOR (Homo sapiens, UniProt P41145); assay: biochemical; type: binding
DOR [2] = target: T2, DOR (Homo sapiens, UniProt P41143); assay: Split luciferase cAMP assay, agonist mode, HEK cells stably expressing DOR; type: cell-based
KOR [3] = target: T1, KOR; assay: cell-based
DOR [4] = target: T2, DOR; type: binding; details: membranes from transient HEK cells
MOR [5] = target: T3, MOR (Homo sapiens, UniProt P35372); assay: Split luciferase cAMP assay, agonist mode, HEK cells stably expressing MOR; type: cell-based
MOR [6] = target: T3, MOR; type: binding; details: membranes from transient HEK cells
KOR [7] = target: T1, KOR; details: read-out: KOR Ki, cited from earlier work
MOR [8] = target: T3, MOR; details: read-out: MOR Ki; literature value ref 16; cited from earlier work
DOR [9] = target: T2, DOR; details: read-out: DOR Ki; literature value ref 16; cited from earlier work

T2 sequence (P41143 whole entry): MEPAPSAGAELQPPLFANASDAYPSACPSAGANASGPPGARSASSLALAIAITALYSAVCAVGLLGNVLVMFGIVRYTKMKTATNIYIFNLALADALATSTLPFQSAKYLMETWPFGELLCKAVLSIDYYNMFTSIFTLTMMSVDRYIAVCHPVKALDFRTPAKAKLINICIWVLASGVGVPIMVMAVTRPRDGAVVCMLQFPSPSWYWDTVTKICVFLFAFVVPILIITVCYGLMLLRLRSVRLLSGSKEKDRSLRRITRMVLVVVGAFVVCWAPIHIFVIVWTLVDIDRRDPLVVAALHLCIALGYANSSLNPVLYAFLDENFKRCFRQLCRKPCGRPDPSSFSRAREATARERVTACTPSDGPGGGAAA
T1 sequence (P41145 whole entry): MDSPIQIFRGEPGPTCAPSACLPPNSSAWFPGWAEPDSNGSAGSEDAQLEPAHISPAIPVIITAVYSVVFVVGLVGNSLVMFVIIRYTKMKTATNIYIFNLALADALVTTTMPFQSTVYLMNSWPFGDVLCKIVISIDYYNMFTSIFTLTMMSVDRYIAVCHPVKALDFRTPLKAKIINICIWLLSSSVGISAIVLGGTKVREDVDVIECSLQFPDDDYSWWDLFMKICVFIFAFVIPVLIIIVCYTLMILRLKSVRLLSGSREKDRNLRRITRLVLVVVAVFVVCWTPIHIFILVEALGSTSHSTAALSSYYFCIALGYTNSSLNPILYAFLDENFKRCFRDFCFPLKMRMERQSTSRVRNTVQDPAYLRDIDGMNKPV
T3 sequence (P35372 whole entry): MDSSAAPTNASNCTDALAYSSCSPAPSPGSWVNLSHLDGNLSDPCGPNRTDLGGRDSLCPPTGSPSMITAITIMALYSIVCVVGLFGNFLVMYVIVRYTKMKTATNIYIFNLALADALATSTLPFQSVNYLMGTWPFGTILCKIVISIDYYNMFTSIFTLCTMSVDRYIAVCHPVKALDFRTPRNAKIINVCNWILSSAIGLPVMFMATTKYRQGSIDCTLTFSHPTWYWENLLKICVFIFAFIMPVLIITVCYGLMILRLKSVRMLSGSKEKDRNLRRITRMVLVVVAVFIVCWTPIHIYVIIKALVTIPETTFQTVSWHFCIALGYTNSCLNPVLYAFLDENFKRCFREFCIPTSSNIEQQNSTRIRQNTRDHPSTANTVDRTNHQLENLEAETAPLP

Compound: CC1(C)SSC(C)(C)[C@@H](NC(=O)[C@@H](N)Cc2ccc(O)cc2)C(=O)NCC(=O)N[C@@H](Cc2ccccc2)C(=O)N2CCN(CC2)C(=O)[C@H](Cc2ccccc2)NC(=O)CNC(=O)[C@@H]1NC(=O)[C@@H](N)Cc1ccc(O)cc1 [ligand 3, c^2,2′(Tyr-DPen-Gly-Phe)2-piperazine] (I: H-Y[dPen]GF / II: H-Y[dPen]GF; disulfide I:2-II:2; linker I:C-II:C via Piperazine(1,4-diyl))
- Ki (KOR [1]; KOR [3H]U69593 Ki): 0.0056 µM
- Ki (KOR [1]; KOR [3H]U69593 pKi): 0.00562 µM
- EC50 (DOR [2]; DOR EC50, agonist mode): 0.269 µM
- EC50 (DOR [2]; DOR pEC50, agonist mode): 0.269 µM
- EC50 (KOR [3]; KOR EC50): 0.269 µM
- EC50 (KOR [3]; KOR pEC50): 0.269 µM
- Ki (DOR [4]; DOR [3H]DADLE Ki): 0.0019 µM
- Ki (DOR [4]; DOR [3H]DADLE pKi): 0.002 µM
- EC50 (MOR [5]; MOR EC50, agonist mode): 0.191 µM
- EC50 (MOR [5]; MOR pEC50, agonist mode): 0.191 µM
- Ki (MOR [6]; MOR [3H]DAMGO Ki): 0.0029 µM
- Ki (MOR [6]; MOR [3H]DAMGO pKi): 0.00288 µM

Compound: Biphalin
- Ki (KOR [7]; literature value ref 6): 0.27 ± 0.015 µM

Compound: c^2,2′(Tyr-DPen-Gly-Phe-NH-)2 (YCGF) [compound 6]
- Ki (MOR [8]): 0.0052 ± 0.0005 µM
- Ki (KOR [7]; literature value ref 16): 0.257 ± 0.025 µM
- Ki (DOR [9]): 0.0019 ± 0.0002 µM
